US12077503B2, “Substituted cyclic amides and their use as herbicides” (FMC CORPORATION, priority 2015, dated 2024)

Legend:
Test in all cases: Test E preemergence
Assay type in all cases: in vivo
Conditions in all cases: scale 0 to 100
[1] = system: horseweed (Conyza canadensis)
In short: (§1)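 Compound in non-phytotoxic solvent with surfactant is applied preemergence to silt loam soil after sowing, or postemergence to plants 2 to 18 cm tall in peat-based medium. Plants grow in a greenhouse for 14 to 21 d. Each species is then compared with controls and scored visually, 0 (no effect) to 100 (complete control).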

[2] = system: beggarticks (hairy beggarticks, Bidens pilosa)
In short: as §1

[3] = system: morningglory (Ipomoea coccinea)
In short: as §1

[4] = system: crabgrass, Brazil (Brazilian crabgrass, Digitaria horizontalis)
In short: as §1

[5] = system: nightshade (eastern black nightshade, Solanum ptycanthum)
In short: as §1

[6] = system: foxtail, green (green foxtail, Setaria viridis)
In short: as §1

[7] = system: Panicum, fall (fall Panicum, Panicum dichotomiflorum)
In short: as §1

[8] = system: waterhemp (common waterhemp, Amaranthus rudis)
In short: as §1

[9] = system: field bindweed (Convolvulus arvensis)
In short: as §1

[10] = system: sandbur (southern sandbur, Cenchrus echinatus)
In short: as §1

Kochia (Kochia scoparia) = system: Kochia (Kochia scoparia)
In short: as §1

[11] = system: nutsedge, yellow (yellow nutsedge, Cyperus esculentus)
In short: as §1

[12] = system: goosegrass (Eleusine indica)
In short: as §1

[13] = system: velvetleaf (Abutilon theophrasti)
In short: as §1

[14] = system: ryegrass, Italian (Italian ryegrass, Lolium multiflorum)
In short: as §1

[15] = system: barnyardgrass (Echinochloa crus-galli)
In short: as §1

[16] = system: arrowleaf Sida (Sida rhombifolia)
In short: as §1

[17] = system: pigweed, palmer (palmer pigweed, Amaranthus palmeri)
In short: as §1

[18] = system: ragweed (common ragweed, Ambrosia elatior)
In short: as §1

[19] = system: crabgrass, large (large crabgrass, Digitaria sangumnalis)
In short: as §1

[20] = system: surinam grass (Brachiaria decumbens)
In short: as §1

CN1CC(c2ccc(C(F)(F)F)cc2)C(C(=O)Nc2ccccc2S(C)(=O)=O)C1=O (stereo not shown) [Compound 624]
Plant response rating: Horseweed ([1]; 31 g ai/ha): 30
Plant response rating: Horseweed ([1]; 62 g ai/ha): 90
Plant response rating: Horseweed ([1]; 250 g ai/ha): 85
Plant response rating: Beggarticks ([2]; 31 g ai/ha): 20
Plant response rating: Beggarticks ([2]; 62 g ai/ha): 25
Plant response rating: Beggarticks ([2]; 125 g ai/ha): 40
Plant response rating: Beggarticks ([2]; 250 g ai/ha): 50
Plant response rating: Morningglory ([3]; 31 g ai/ha): 10
Plant response rating: Morningglory ([3]; 62 g ai/ha): 20
Plant response rating: Morningglory ([3]; 125 g ai/ha): 50
Plant response rating: Morningglory ([3]; 250 g ai/ha): 40
Plant response rating: Crabgrass, Brazil ([4]; 31 g ai/ha): 80
Plant response rating: Crabgrass, Brazil ([4]; 62 g ai/ha): 80
Plant response rating: Crabgrass, Brazil ([4]; 125 g ai/ha): 95
Plant response rating: Crabgrass, Brazil ([4]; 250 g ai/ha): 100
Plant response rating: Nightshade ([5]; 31 g ai/ha): 70
Plant response rating: Nightshade ([5]; 62 g ai/ha): 75
Plant response rating: Nightshade ([5]; 125 g ai/ha): 80
Plant response rating: Nightshade ([5]; 250 g ai/ha): 80
Plant response rating: Foxtail, Green ([6]; 31 g ai/ha): 20
Plant response rating: Foxtail, Green ([6]; 62 g ai/ha): 20
Plant response rating: Foxtail, Green ([6]; 125 g ai/ha): 65
Plant response rating: Foxtail, Green ([6]; 250 g ai/ha): 75
Plant response rating: Panicum, Fall ([7]; 31 g ai/ha): 0
Plant response rating: Panicum, Fall ([7]; 62 g ai/ha): 0
Plant response rating: Panicum, Fall ([7]; 125 g ai/ha): 30
Plant response rating: Panicum, Fall ([7]; 250 g ai/ha): 60
Plant response rating: Waterhemp ([8]; 31 g ai/ha): 50
Plant response rating: Waterhemp ([8]; 62 g ai/ha): 60
Plant response rating: Waterhemp ([8]; 125 g ai/ha): 75
Plant response rating: Waterhemp ([8]; 250 g ai/ha): 70
Plant response rating: Field Bindweed ([9]; 31 g ai/ha): 0
Plant response rating: Field Bindweed ([9]; 62 g ai/ha): 10
Plant response rating: Field Bindweed ([9]; 125 g ai/ha): 5
Plant response rating: Field Bindweed ([9]; 250 g ai/ha): 10
Plant response rating: Sandbur ([10]; 31 g ai/ha): 10
Plant response rating: Sandbur ([10]; 62 g ai/ha): 30
Plant response rating: Sandbur ([10]; 125 g ai/ha): 50
Plant response rating: Sandbur ([10]; 250 g ai/ha): 50
Plant response rating: Kochia (Kochia (Kochia scoparia); 31 g ai/ha): 0
Plant response rating: Kochia (Kochia (Kochia scoparia); 125 g ai/ha): 0
Plant response rating: Kochia (Kochia (Kochia scoparia); 250 g ai/ha): 30
Plant response rating: Nutsedge, Yellow ([11]; 31 g ai/ha): 0
Plant response rating: Nutsedge, Yellow ([11]; 62 g ai/ha): 0
Plant response rating: Nutsedge, Yellow ([11]; 125 g ai/ha): 0
Plant response rating: Nutsedge, Yellow ([11]; 250 g ai/ha): 10
Plant response rating: Goosegrass ([12]; 31 g ai/ha): 50
Plant response rating: Goosegrass ([12]; 62 g ai/ha): 75
Plant response rating: Goosegrass ([12]; 125 g ai/ha): 80
Plant response rating: Goosegrass ([12]; 250 g ai/ha): 100
Plant response rating: Velvetleaf ([13]; 31 g ai/ha): 0
Plant response rating: Velvetleaf ([13]; 62 g ai/ha): 0
Plant response rating: Velvetleaf ([13]; 125 g ai/ha): 10
Plant response rating: Velvetleaf ([13]; 250 g ai/ha): 20
Plant response rating: Ryegrass, Italian ([14]; 31 g ai/ha): 0
Plant response rating: Ryegrass, Italian ([14]; 62 g ai/ha): 0
Plant response rating: Ryegrass, Italian ([14]; 125 g ai/ha): 10
Plant response rating: Ryegrass, Italian ([14]; 250 g ai/ha): 15
Plant response rating: Barnyardgrass ([15]; 31 g ai/ha): 0
Plant response rating: Barnyardgrass ([15]; 62 g ai/ha): 30
Plant response rating: Barnyardgrass ([15]; 125 g ai/ha): 50
Plant response rating: Barnyardgrass ([15]; 250 g ai/ha): 65
Plant response rating: Arrowleaf Sida ([16]; 31 g ai/ha): 50
Plant response rating: Arrowleaf Sida ([16]; 62 g ai/ha): 50
Plant response rating: Arrowleaf Sida ([16]; 125 g ai/ha): 40
Plant response rating: Arrowleaf Sida ([16]; 250 g ai/ha): 60
Plant response rating: Pigweed, Palmer ([17]; 31 g ai/ha): 0
Plant response rating: Pigweed, Palmer ([17]; 62 g ai/ha): 25
Plant response rating: Pigweed, Palmer ([17]; 125 g ai/ha): 20
Plant response rating: Pigweed, Palmer ([17]; 250 g ai/ha): 30
Plant response rating: Ragweed ([18]; 31 g ai/ha): 20
Plant response rating: Ragweed ([18]; 62 g ai/ha): 20
Plant response rating: Ragweed ([18]; 125 g ai/ha): 30
Plant response rating: Ragweed ([18]; 250 g ai/ha): 30
Plant response rating: Crabgrass, Large ([19]; 31 g ai/ha): 30
Plant response rating: Crabgrass, Large ([19]; 62 g ai/ha): 85
Plant response rating: Crabgrass, Large ([19]; 125 g ai/ha): 80
Plant response rating: Crabgrass, Large ([19]; 250 g ai/ha): 90
Plant response rating: Surinam Grass ([20]; 31 g ai/ha): 20
Plant response rating: Surinam Grass ([20]; 62 g ai/ha): 30
Plant response rating: Surinam Grass ([20]; 125 g ai/ha): 40
Plant response rating: Surinam Grass ([20]; 250 g ai/ha): 70
